Measured values: patent US7125546B2, “Polymeric micelle containing cisplatin enclosed therein and use thereof” (Toudai TLO, Ltd., priority 2000, dated 2006)
Values joined by “and” are separate entries in the source; they are usually repeats but may differ in a detail not shown here. Identical values can stand only once.

Experiments:
[1] = test system: Louis pulmonary cancer; assay: Antitumor effect and weight change after single caudate vein administration to mice with subcutaneously transplanted Louis pulmonary cancer
Protocol: (§1) In FIG. 5, calculated were duration integrations (up to 17 days since drug treatment) of relative values in a change in a tumor volume and a weight change on a zero day, and the ratios of the drug-treated group to the drug-non-treat group in the values were shown as an antitumor effect and a weight change respectively. Further, the drug was administered once from a caudate vein to a normal C57BL6/N mouse (n=4, male, 6 ages in week) to evaluate a urea nitrogen (BUN) value in blood plasma after 6 days. […] The ratio of the drug-treated group to the drug-non-treat group in this BUN value was calculated as well, and the relative BUN value to the CDDP-equivalent dosage was shown in FIG. 5(C).

[2] = Blood plasma platinum concentration and accumulation of platinum in tumor and principal organs after caudate vein administration to tumor-bearing mice
Protocol: Evaluated were a change in a blood plasma platinum concentration and a change with the passage of time in accumulation of platinum in the principal organs observed when free CDDP and the CDDP-encapsulating micelle were administered from a caudate vein to a C57BL6/N mouse (n=4, male, 6 ages in week) in which Louis pulmonary cancer was subcutaneously transplanted to a hypogastric region, and the results thereof are shown in FIG. 4.

[3] = Urea nitrogen (BUN) value in blood plasma 6 days after single caudate vein administration to normal mice (index for nephrotoxicity); details: normal mouse, 6 days after single administration, ratio to non-treated group
Protocol: as §1

[4] = 0–24 hours, tissue platinum concentration-time curve

cis-Diaminedichloroplatinum (II) [CDDP]
toxic death ([1]; 12 mg/kg): one mouse out of 3 mice
weight change ([1]; mouse, in vivo): reduction in the weight
antitumor effect ([1]; single caudate vein administration, tumor volume integration up to 17 days, ratio to non-treated group): increase in the antitumor effect
Kidney AUC/tumor AUC [2, 4]: 3.9 and 7.7
Liver AUC/tumor AUC [2, 4]: 2.6 and 2.7
Muscle AUC/tumor AUC [2, 4]: 0.13 and 0.17
Spleen AUC/tumor AUC [2, 4]: 0.31 and 0.43
accumulation of platinum in a kidney ([2]; immediately after administration (about 15 minutes)): high accumulation immediately after administration
relative BUN value [3]: rise in the BUN value
